The text below walks through data of patent US6656971B2, “Trisubstituted carbocyclic cyclophilin binding compounds and their use” (Guilford Pharmaceuticals Inc., priority 2001, dated 2003).

Structures are written as SMILES.

In one series the target is human recombinant CyPA (Homo sapiens, UniProt P62937). Briefly: Rotamase (PPIase) inhibition, chymotrypsin-coupled cuvette assay, human recombinant CyPA. It is filed as biochemical. As to conditions: Table A, value without asterisk: human recombinant CyPA. An excerpt: A number of substrates for rotamase are known in the art or can be derived from those known. Typically, the substrate contacts a sample containing a protein with rotamase activity and the conversion of the substrate is detected after a period of time. The method for detecting conversion of the substrate will vary with the particular substrate chosen. One method has been termed the Ki test (See Harding, et al., Nature, 341:758-760 (1989); and Holt et al., J. Am. Chem. Soc., 115:9923-9938). The cis-trans isomerization of an alanine-proline bond in a model substrate, N-succinyl-Ala-Ala-Pro-Phe-p-nitroanilide (SEQ ID NO: 1), is monitored spectrophotometrically in a chymotrypsin-coupled assay. The action of chymotrypsin releases p-nitroaniline from only the trans form of the substrate. The amount of p-nitroaniline can be monitored in a spectrophotometer, for example. Other methods of detecting the presence of p-nitroaniline can also be used. The inhibition of this reaction caused by different concentrations of inhibitor is determined and the data are analyzed as a change in first-order rate constant as a function of inhibitor concentration, which yields the Ki value.
Sequence of human recombinant CyPA (P62937 whole entry): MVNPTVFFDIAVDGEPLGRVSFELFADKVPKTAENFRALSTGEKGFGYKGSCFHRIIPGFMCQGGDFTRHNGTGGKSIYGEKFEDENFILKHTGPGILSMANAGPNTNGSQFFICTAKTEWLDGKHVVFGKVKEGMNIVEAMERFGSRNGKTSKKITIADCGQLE
The following were added to a plastic cuvette: 950 μl of ice cold assay buffer (25 mM HEPES, pH 7.8, 100 mM NaCl), 10 μL of CyP A (2.5 μM in 10 mM Tris-Cl pH 7.5, 100 mM NaCl, 1 mM dithiothreitol), 25 μL of chymotrypsin (50 mg/ml in 1 mM HCl), and 10 μL of test compound, at various concentrations, in dimethyl sulfoxide. The reaction was initiated by the addition of 5 μL of substrate (succinyl-Ala-Phe-Pro-Phe-para-nitroanilide (SEQ ID NO: 1), 5 mg/mL in 470 mM LiCl in trifluoroethanol). The absorbance at 390 nm versus time was monitored for 90 seconds using a spectrophotometer and the rate constants were determined from the absorbance versus time data files.
The IC50 values which were obtained for representative compounds are given in the following Table A, and refer to the concentration that inhibits 50% of the rotamase activity in a sample.
(§1) The Cyclophilin utilized was a human recombinant CyPA, [Yoo et al., J. Mol. Biol., 269 (1997) 780-95].

Series [1] deals with T1, recombinant rat CyPA-GST fusion protein (Rattus norvegicus, UniProt P10111).
T1 construct: made in house; host or cells: E. coli BL21
T1 sequence (P10111 2-164): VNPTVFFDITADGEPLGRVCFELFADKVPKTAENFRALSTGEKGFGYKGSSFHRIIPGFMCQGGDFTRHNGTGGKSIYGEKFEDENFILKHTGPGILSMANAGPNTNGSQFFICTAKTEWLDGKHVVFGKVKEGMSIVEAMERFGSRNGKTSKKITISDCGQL
Briefly: Rotamase (PPIase) inhibition, chymotrypsin-coupled cuvette assay, rat CyPA-GST fusion protein. It is filed as biochemical. The settings on record: Table A, value with asterisk: recombinant rat CyPA-GST fusion protein.

The target of series [2] is T1, recombinant rat CyPA-GST fusion protein. Nature of the series: Semiautomated microtiter plate assay of rotamase activity inhibition, rat CyPA-GST fusion protein. It is filed as biochemical. As to conditions: Table B, value with asterisk: recombinant rat CyPA-GST fusion protein. The method, then: as §1
The resulting fragment (573 base pairs) was cloned into pCRII and amplified. The CyP sequence was cut out with Sma1 and EcoR1 and cloned into the Sma1/EcoR1 sites in pGEX2TK (Pharmacia). This plasmid was transformed into BL21 E. coli cells for expression of the GST-CyPA fusion protein.
Rotamase inhibition was determined using a semiautomated microtiter plate assay modification of the above described assay [see Küllertz et al., Clin. Chem. 44, 502-508 (1998)]. All dilutions of CyPA, peptide substrate, and chymotrypsin were made in 35 mM ice-cold HEPES buffer. Fifty μL of CyPA solution is added to 50 μL of the peptide substrate solution (Phe-Pro-Phe p-nitroanilide, 0.16 mg/ml) in a glass microtiter well plate (the concentration of human recombinant CyP being adjusted so that the reaction rate is increased by a factor of 3 as compared to an uncatalyzed control reaction wherein the peptide substrate is degraded by chymotrypsin alone, in the absence of CyPA and test compound). Using a Beckman Multimek™ 96 automated 96-channel pipettor, 5 μL of test compound solution, or a DMSO blank, were added to each well for a 30 minute preincubation at 4° C. One hundred μL of chymotrypsin solution (1 mg/mL) were added to each well and the absorbance at 390 nm versus time was monitored for 9-10 minutes using a BioRad Ultramark plate reader maintained at 4° C. and the rate constants were determined from the absorbance versus time data files.
IC50 values which were obtained for representative compounds are presented in the following Table B. The cyclophilin utilized was a human recombinant CyPA. […] While CyP A was used in these examples, other CyP proteins can be substituted.

Series [3] has as its system SMI-32 immunoreactive neurons of lumbar spinal cord slices. Nature of the series: Neuroprotection assay in spinal cord slice preparations (THA-induced cell death). It is filed as cell-based, Sprague-Dawley rat. The settings on record: THA 200 μM + compound 10 μM. The protocol:
All cultures were derived from postnatal day 8 (P8) Sprague-Dawley rat lumbar spinal cord slices of 325 micrometer thickness, prepared using a commercially available McIlwain tissue chopper. Each experiment consisted of two 6-well plates with 5 slices from 4 different animals per well. Media changes were performed every 3 to 4 days. Cultures were treated with THA [L(−)-threo-3-hydroxyaspartic acid; Tocris Cookson Inc., Ballwin, Mo.] at 200 μM+compound (10 μM) after one week in culture. The control was an untreated sample with 0.1% DMSO as vehicle. The THA control was a THA treated sample with 0.1% DSMO as vehicle. Two wells were used per condition. One media change with new THA and compounds was performed. […]
Slices were permeabilized with 100% cold methanol for 10 minutes, subsequently washed 3×in 0.1M phosphate buffer and transferred to staining wells. […] Quantification of surviving neurons was performed on a Zeiss Axiovert microscope. Neuronal survival was determined by observing an intact neuronal cell body with processes located ventrally of the central canal in each hemisphere. […] Each hemisphere was counted individually. The statistics were performed with StatView™ software on a minimum of three different experiments per condition and significance was determined as compared to THA control. […]

The IC50 is the midpoint of a concentration-inhibition curve. What is called melting point is the temperature, or range, at which the solid turns liquid. Compound `O=C(Nc1cc(OCc2cccc3ccccc23)ccc1Br)c1cccc(C(F)(F)F)c1` [Compound 34, N-[2-bromo-5-(naphthylmethoxy)phenyl][3-(trifluoromethyl)phenyl]formamide] gave a melting point of 125 to 127 °C. Besides, at human recombinant CyPA, the IC50 turned out to be 11.7 µM. The IC50 in series [1] stood at 12 µM. The IC50 in series [2] was determined as 9.72 µM.
For `O=C(Nc1ccc(Cl)c(Cl)c1)c1cc(OCc2ccccc2)cc(C(=O)Nc2ccc(Cl)c(Cl)c2)c1` [Compound 43], the IC50 was 0.377 µM in series [1] and 0.287 µM in series [2]. In addition, the “protection from THA-induced cell death” value in series [3] is on record as “complete protection”. For the same compound, in series [3] (untreated control 26.4±4.2, THA control 18.97±2.04 (mean±standard error)), the “SMI-32 immunoreactive neurons per ventral hemisphere” value is recorded as 28.14±2.4 cells/ventral hemisphere.
